Assay results taken from patent US9012182B2, “Method for producing purine nucleosides and nucleotides by fermentation using bacterium belonging to the genus Bacillus or Escherichia” (Ajinomoto Co., Inc., priority 2004, dated 2015).

What was measured:
Type in all cases: cell-based
[1] = test system: E. coli deoD gsk3 (pYDHL1); experiment: Growth on minimal medium with inosine or guanosine, ydhL-amplified strain; conditions: for Resistance conferred by ydhL gene overexpression: summary in words of Table 2, pYDHL1 versus pMW118; for Growth on the minimal medium containing Guanosine 10 mg/l: key: +: good growth; −: no growth; for Growth on the minimal medium containing Guanosine 15 mg/l: key: +: good growth; −: no growth; for Growth on the minimal medium containing Inosine 1000 mg/l: key: +: good growth; −: no growth; for Growth on the minimal medium containing Inosine 300 mg/l: key: +: good growth; −: no growth
Description: (§1) The pYDHL1 plasmid and the vector were used to transform the E. coli strain TG1 (Amersham Pharmacia Biotech) via standard techniques. Transformants were selected on L-broth agar plates with 100 μg/ml ampicillin. Thus, the E. coli strains TG1 (pYDHL1) and TG1 (pMW118) were obtained. Then the ability of these strains to grow in the presence of purine base analogues was determined on M9 glucose minimal agar plates containing graded concentrations of an inhibitor. The plates were spotted with 10^5 to 10^6 cells from an overnight culture grown in a minimal medium (supplemented with 100 μg/ml of ampicillin). The growth was estimated after 44 h incubation at 37° C.
(§2) The pYDHL1 plasmid and the pMW118 vector were also transformed into the E. coli strain TG1 deoD gsk3. The E. coli strain TG1 deoD gsk3 was an especially constructed parental strain which is used for checking the resistance to inosine and guanosine. This strain was obtained by sequential introduction of a deoD mutation, as described in PCT application WO9903988 and gsk3 mutation described by Petersen C. (J. Biol. Chem., 274, 5348-5356, 1999) using phage P1-mediated transduction into the known strain TG1 (VKPM B-5837), which is resistant to inosine and guanosine due to its ability to degrade purine. The strain TG1 deoD gsk3 cannot degrade guanosine and inosine due to a deoD mutation (WO9903988), and it is sensitive to nucleosides due to a gsk3 mutation (Petersen C. J. Biol. Chem., 274, 5348-5356, 1999). Thus, the strains TG1 deoD gsk3 (pYDHL1) and TG1 deoD gsk3 (pMW118) were obtained. Then the ability of these strains to grow in the presence of inosine and guanosine was determined as above.

[2] = test system: E. coli deoD gsk3 (pMW118); experiment: Growth on minimal medium with inosine or guanosine, vector control strain; note: key: +: good growth; −: no growth
Description: as §1, §2

[3] = test system: E. coli strain TG1 (pMW118); experiment: Growth on M9 glucose minimal agar with purine base analogues, vector control strain; conditions: 44 h at 37° C. Note: key: +: good growth; −: no growth.
Description: as §1

[4] = test system: E. coli strain TG1 (pYDHL1); experiment: Growth on M9 glucose minimal agar with purine base analogues, ydhL-amplified strain; conditions: 44 h at 37° C. Note: key: +: good growth; −: no growth.
Description: as §1

B. subtilis 168 = experiment: Growth on M9 glucose minimal agar with purine analogues, control strain; conditions: 48 h at 34° C.
Description: (§3) The pYDHL3, pYDHL4 plasmids and the pMWMX1 vector were used to transform wild-type B. subtilis strain 168 via standard techniques. Transformants were selected on L-broth agar plates with 10 μg/ml erythromycin. Thus, the strains B. subtilis 168(pMWMX1), B. subtilis 168(pYDHL3) and B. subtilis 168(pYDHL4) were obtained. Then, the ability of these strains to grow in the presence of purine base analogues was determined on M9 glucose minimal agar plates (minimal medium M9, glucose-2%, vitamin assay casamino acids (Difco)—0.1%, tryptophan—100 μg/ml) containing graded concentrations of a purine analogue. The plates were spotted with 10^5 to 10^6 cells from an overnight culture grown on the above agar plates without the analogues. The growth was estimated after 48 h incubation at 34° C.

B. subtilis 168(pYDHL3) = experiment: Growth on M9 glucose minimal agar with purine analogues, ydhLBs-amplified strain; conditions: 48 h at 34° C. Note: key: +: good growth; −: no growth.
Description: as §3

B. subtilis 168(pYDHL4) = experiment: Growth on M9 glucose minimal agar with purine analogues, ydhLBa-amplified strain; conditions: 48 h at 34° C. Note: key: +: good growth; −: no growth.
Description: as §3

OC[C@H]1O[C@@H](n2cnc3c(O)ncnc32)[C@H](O)[C@@H]1O [Inosine]
Growth on the minimal medium containing Inosine 300 mg/l ([1]; inosine 300 mg/l, E. coli deoD gsk3 (pYDHL1)): +
Growth on the minimal medium containing Inosine 1000 mg/l ([1]; inosine 1000 mg/l, E. coli deoD gsk3 (pYDHL1)): +
Resistance conferred by ydhL gene overexpression [1]: high-level resistance
Growth on the minimal medium containing Inosine 300 mg/l ([2]; inosine 300 mg/l): −
Growth on the minimal medium containing Inosine 1000 mg/l ([2]; inosine 1000 mg/l): −

Sc1ncnc2nc[nH]c12 [MP, 6-mercaptopurine]
Growth on the minimal medium containing MP, 400 μg/ml ([3]; MP 400 μg/ml): −
Growth on the minimal medium containing MP, 400 μg/ml ([4]; MP 400 μg/ml): +

Nc1nc2c(ncn2[C@@H]2O[C@H](CO)[C@@H](O)[C@H]2O)c(=O)[nH]1 [Guanosine]
Growth on the minimal medium containing Guanosine 10 mg/l ([1]; guanosine 10 mg/l, E. coli deoD gsk3 (pYDHL1)): +
Growth on the minimal medium containing Guanosine 15 mg/l ([1]; guanosine 15 mg/l, E. coli deoD gsk3 (pYDHL1)): −
Resistance conferred by ydhL gene overexpression [1]: low-level resistance
Growth on the minimal medium containing Guanosine 10 mg/l ([2]; guanosine 10 mg/l): −
Growth on the minimal medium containing Guanosine 15 mg/l ([2]; guanosine 15 mg/l): −

Nc1nc2nn[nH]c2c(=O)[nH]1 [AzaG, 8-azaguanine]
Growth on the minimal medium containing AzaG, 2 μg/ml (B. subtilis 168; AzaG 2 μg/ml): −
Growth on the minimal medium containing AzaG, 10 μg/ml (B. subtilis 168; AzaG 10 μg/ml): −
Growth on the minimal medium containing AzaG, 2 μg/ml (B. subtilis 168(pYDHL3); AzaG 2 μg/ml): +
Growth on the minimal medium containing AzaG, 2 μg/ml (B. subtilis 168(pYDHL4); AzaG 2 μg/ml): +
Growth on the minimal medium containing AzaG, 10 μg/ml (B. subtilis 168(pYDHL4); AzaG 10 μg/ml): +

Cc1ncnc2nc[nH]c12 [MePur, 6-methylpurine]
Growth on the minimal medium containing MePur, 20 μg/ml (B. subtilis 168; MePur 20 μg/ml): −
Growth on the minimal medium containing MePur, 20 μg/ml (B. subtilis 168(pYDHL3); MePur 20 μg/ml): +
Growth on the minimal medium containing MePur, 20 μg/ml (B. subtilis 168(pYDHL4); MePur 20 μg/ml): +

Nc1nc(N)c2[nH]cnc2n1 [DAP, 2,6-diaminopurine]
Growth on the minimal medium containing DAP, 400 μg/ml ([3]; DAP 400 μg/ml): −
Growth on the minimal medium containing DAP, 400 μg/ml ([4]; DAP 400 μg/ml): +

Nc1ncnc2nn[nH]c12 [AzaA, 8-azaadenine]
Growth on the minimal medium containing AzaA, 2 mg/ml (B. subtilis 168; AzaA 2 mg/ml): −
Growth on the minimal medium containing AzaA, 300 μg/ml ([3]; AzaA 300 μg/ml): −
Growth on the minimal medium containing AzaA, 300 μg/ml ([4]; AzaA 300 μg/ml): +
Growth on the minimal medium containing AzaA, 2 mg/ml (B. subtilis 168(pYDHL4); AzaA 2 mg/ml): +
